In the NIST ThermoML archive (doi:10.1021/je100042c):
Numbers after ± are expanded uncertainties.

Conditions: 101.33 kPa, Liquid; for viscosity: Concentric cylinders viscometry; for mass density: Vibrating tube method

| SMILES | viscosity (303.15 K) | mass density (303.15 K) | viscosity (313.15 K) | mass density (313.15 K) | viscosity (318.15 K) | mass density (318.15 K) | viscosity (323.15 K) | mass density (323.15 K) | viscosity (328.15 K) | mass density (328.15 K) | viscosity (333.15 K) | mass density (333.15 K) | viscosity (338.15 K) | mass density (338.15 K) | viscosity (343.15 K) | mass density (343.15 K) | viscosity (348.15 K) | mass density (348.15 K) | viscosity (353.15 K) | mass density (353.15 K) | further results |
| --- | --- | --- | --- | --- | --- | --- | --- | --- | --- | --- | --- | --- | --- | --- | --- | --- | --- | --- | --- | --- | --- |
| CCCCCCCCCCCCCCCC(=O)OCC [ethyl hexadecanoate] | 5.011 ± 0.047 mPa·s | 852.6 ± 1 kg/m3 | 3.956 ± 0.037 mPa·s | 845.2 ± 1 kg/m3 | 3.547 ± 0.034 mPa·s | 841.5 ± 1 kg/m3 | 3.197 ± 0.03 mPa·s | 837.9 ± 1 kg/m3 | 2.897 ± 0.028 mPa·s | 834.2 ± 1 kg/m3 | 2.637 ± 0.025 mPa·s | 830.5 ± 1 kg/m3 | 2.412 ± 0.023 mPa·s | 826.9 ± 1 kg/m3 | 2.214 ± 0.022 mPa·s | 823.2 ± 1 kg/m3 | 2.039 ± 0.02 mPa·s | 819.5 ± 1 kg/m3 | 1.884 ± 0.018 mPa·s | 815.9 ± 1 kg/m3 | viscosity (308.15 K): 4.44 ± 0.042 mPa·s; mass density (308.15 K): 848.9 ± 1 kg/m3; viscosity (358.15 K): 1.746 ± 0.017 mPa·s; mass density (358.15 K): 812.2 ± 1 kg/m3; viscosity (363.15 K): 1.623 ± 0.016 mPa·s; mass density (363.15 K): 808.6 ± 1 kg/m3 |
| CCCCCCCCCCCCCCCCCC(=O)OCC [ethyl octadecanoate] |  |  | 5.082 ± 0.048 mPa·s | 844.8 ± 1 kg/m3 | 4.529 ± 0.042 mPa·s | 841.1 ± 1 kg/m3 | 4.057 ± 0.038 mPa·s | 837.5 ± 1 kg/m3 | 3.654 ± 0.034 mPa·s | 833.9 ± 1 kg/m3 | 3.307 ± 0.031 mPa·s | 830.3 ± 1 kg/m3 | 3.007 ± 0.029 mPa·s | 826.7 ± 1 kg/m3 | 2.744 ± 0.026 mPa·s | 823.1 ± 1 kg/m3 | 2.515 ± 0.024 mPa·s | 819.5 ± 1 kg/m3 | 2.313 ± 0.022 mPa·s | 815.9 ± 1 kg/m3 | viscosity (358.15 K): 2.135 ± 0.021 mPa·s; mass density (358.15 K): 812.3 ± 1 kg/m3; viscosity (363.15 K): 1.978 ± 0.019 mPa·s; mass density (363.15 K): 808.7 ± 1 kg/m3 |
| CCCCCCCCCCCCCC(=O)OCC [ethyl tetradecanoate] | 3.721 ± 0.035 mPa·s | 853.4 ± 1 kg/m3 | 2.993 ± 0.029 mPa·s | 845.8 ± 1 kg/m3 | 2.706 ± 0.026 mPa·s | 842 ± 1 kg/m3 | 2.458 ± 0.024 mPa·s | 838.2 ± 1 kg/m3 | 2.242 ± 0.022 mPa·s | 834.5 ± 1 kg/m3 | 2.055 ± 0.02 mPa·s | 830.7 ± 1 kg/m3 | 1.889 ± 0.019 mPa·s | 826.9 ± 1 kg/m3 | 1.743 ± 0.017 mPa·s | 823.1 ± 1 kg/m3 | 1.614 ± 0.016 mPa·s | 819.4 ± 1 kg/m3 | 1.499 ± 0.015 mPa·s | 815.6 ± 1 kg/m3 | viscosity (283.15 K): 6.26 ± 0.058 mPa·s; mass density (283.15 K): 868.7 ± 1 kg/m3; viscosity (288.15 K): 5.43 ± 0.051 mPa·s; mass density (288.15 K): 864.8 ± 1 kg/m3; viscosity (293.15 K): 4.749 ± 0.044 mPa·s; mass density (293.15 K): 861 ± 1 kg/m3; viscosity (298.15 K): 4.188 ± 0.039 mPa·s; mass density (298.15 K): 857.2 ± 1 kg/m3; viscosity (308.15 K): 3.328 ± 0.032 mPa·s; mass density (308.15 K): 849.6 ± 1 kg/m3 |
| CCCCC/C=C\C/C=C\CCCCCCCC(=O)OC [methyl (Z,Z)-9,12-octadecadienate] | 3.961 ± 0.037 mPa·s | 878.8 ± 1 kg/m3 | 3.227 ± 0.031 mPa·s | 871.5 ± 1 kg/m3 | 2.936 ± 0.028 mPa·s | 867.9 ± 1 kg/m3 | 2.682 ± 0.026 mPa·s | 864.3 ± 1 kg/m3 | 2.461 ± 0.024 mPa·s | 860.7 ± 1 kg/m3 | 2.266 ± 0.022 mPa·s | 857 ± 1 kg/m3 | 2.093 ± 0.02 mPa·s | 853.4 ± 1 kg/m3 | 1.94 ± 0.019 mPa·s | 849.8 ± 1 kg/m3 | 1.804 ± 0.018 mPa·s | 846.1 ± 1 kg/m3 | 1.682 ± 0.017 mPa·s | 842.5 ± 1 kg/m3 | viscosity (278.15 K): 7.466 ± 0.069 mPa·s; mass density (278.15 K): 897.2 ± 1 kg/m3; viscosity (283.15 K): 6.466 ± 0.06 mPa·s; mass density (283.15 K): 893.5 ± 1 kg/m3; viscosity (288.15 K): 5.655 ± 0.053 mPa·s; mass density (288.15 K): 889.9 ± 1 kg/m3; viscosity (293.15 K): 4.982 ± 0.047 mPa·s; mass density (293.15 K): 886.2 ± 1 kg/m3; viscosity (298.15 K): 4.428 ± 0.042 mPa·s; mass density (298.15 K): 882.5 ± 1 kg/m3; viscosity (308.15 K): 3.567 ± 0.034 mPa·s; mass density (308.15 K): 875.2 ± 1 kg/m3; mass density (358.15 K): 838.7 ± 1 kg/m3; mass density (363.15 K): 835.1 ± 1 kg/m3 |
